According to article PMC4894664 (Cancer cell, 2015):
pIC50: −log10 of the molar value.

Assays:
[1] = system: SKBR3 breast cancer (HER2-activated wild type RAS); experiment: RAS activity and p-ERK in SKBR3 cells; type: cell-based
[2] = system: second site of the WT RAF dimer in SK-MEL-30 NRAS mutant cells; type: cell-based; settings: p-ERK; first site occupied by LGX818
[3] = system: BRAF V600E T529N or p61 BRAF V600E T529N; experiment: ERK signaling in cells expressing BRAF gatekeeper mutants; type: cell-based; settings: cells expressing BRAF V600E T529N or p61 BRAF V600E T529N (gatekeeper mutation)
[4] = system: SK-MEL-239 C4 tumors (p61 V600E); experiment: SK-MEL-239 C4 subcutaneous xenograft; type: in vivo, nude mice; settings: for activity against SK-MEL-239 C4 tumors (growth): daily for 32 days, 75 mg/kg vemurafenib or 100 mg/kg BGB659
A375 (BRAF V600E) cells = experiment: p-ERK in A375 cells; type: cell-based
[5] = system: SK-MEL-2 melanoma (mutant NRAS Q61R); experiment: p-ERK in SK-MEL-2 cells; type: cell-based; settings: 1 hr
SK-MEL-239 tumors = experiment: SK-MEL-239 subcutaneous xenograft; type: in vivo, nude mice; settings: for growth of SK-MEL-239 tumors: daily for 32 days, 75 mg/kg vemurafenib or 100 mg/kg BGB659; for ERK signaling in SK-MEL-239 tumors: tumor extracts, Western blot, 75 mg/kg vemurafenib or 100 mg/kg BGB659 daily
[6] = system: A375 in which NRAS Q61K is expressed; experiment: p-ERK in A375 cells expressing NRAS Q61K; type: cell-based; settings: A375 with mutant NRAS overexpressed, 1 hr
[7] = system: A549 lung cancer (mutant KRAS G12S); experiment: p-ERK in A549 cells; type: cell-based; settings: 1 hr
[8] = Tolerability of daily dosing in mice; type: in vivo; settings: 100 mg/kg given daily
[9] = system: RAF mutants that constitutively dimerize; experiment: ERK signaling in SKBR3 cells expressing RAF mutants that constitutively dimerize; type: cell-based; settings: SKBR3, 1 μM drug, 1 hr
[10] = system: SK-MEL-239 C4 clone (which expresses p61 BRAF V600E); experiment: p-ERK inhibition in SK-MEL-239 C4 clone; type: cell-based; settings: read-out: concentration inhibiting dimer signaling (p-ERK IC50)
[11] = system: SK-MEL-30 (NRAS Q61K) cells; experiment: p-ERK in SK-MEL-30 cells, with and without drug washout; type: cell-based
[12] = system: SK-MEL-239 parental cells (BRAF V600E); experiment: p-ERK inhibition in SK-MEL-239 parental cells; type: cell-based; settings: read-out: concentration inhibiting monomer driven signaling (p-ERK IC50)
BRAF V600E tumor cells = experiment: ERK phosphorylation after drug washout in BRAF V600E tumor cells; type: cell-based; settings: 1 hr exposure then washout
BRAF/CRAF heterodimers = BRAF/CRAF heterodimers (Homo sapiens, UniProt P04049+P15056); experiment: Induction of BRAF/CRAF heterodimers; type: cell-based; settings: HeLa and two melanoma cell lines with mutant NRAS, 1 hr
p61 BRAF V600E = p61 BRAF V600E (Homo sapiens, UniProt P15056, DEL169-380/V600E); experiment: ERK signaling; type: cell-based; settings: SKBR3, drug 1 hr
[13] = system: JVM-3, a BRAF K601N CLL cell line; experiment: ERK signaling and proliferation of JVM-3; type: cell-based
[14] = SK-MEL-30 (mutant NRAS, WT RAF)
[15] = SK-MEL-30, 3 μM for 1 hr then washout

## CC(C)(N)c1cc(C(=O)N[C@@H]2CCc3ccc(Oc4ccnc5c4CCC(=O)N5)cc3C2)cc(C(F)(F)F)c1 [BGB659]
[1]; SKBR3, 1 μM, 1 hr
  decline of ERK phosphorylation: 40%
[1]; SKBR3, 10 μM, 1 hr
  ERK phosphorylation at 10 μM: approached complete inhibition
[2]
  potency for inhibition of monomers and the second site of dimers: 100 to 300 nM
[3]
  ERK signaling resistant to the drug: resistant
[4]
  activity against SK-MEL-239 C4 tumors (growth): had activity
[4]; tumor extracts, Western blot, 75 mg/kg vemurafenib or 100 mg/kg BGB659 daily
  ERK signaling in SK-MEL-239 C4 tumors: only BGB659 inhibited
A375 (BRAF V600E) cells; A375, 1 μM, 1 hr
  inhibition of ERK signaling at 1 μM: almost complete inhibition
A375 (BRAF V600E) cells; read-out: IC50 for inhibition of ERK signaling, A375, 1 hr
  pIC50: 6.52 to 7.00
[5]; SK-MEL-2, 1 μM
  decline of ERK phosphorylation: 40%
[5]; SK-MEL-2, 10 μM
  ERK phosphorylation at 10 μM: approached complete inhibition
SK-MEL-239 tumors
  growth of SK-MEL-239 tumors: effectively inhibited
  ERK signaling in SK-MEL-239 tumors: potently inhibited
[6]
  inhibition of ERK signaling at 1 μM: almost complete inhibition
[7]; A549, 1 μM
  ERK phosphorylation at 1 μM: declined to pretreatment levels
[7]; A549, 10 μM
  ERK phosphorylation at 10 μM: some residual activity remained
[8]
  weight loss or other toxicity: unassociated with weight loss or other obvious toxicity
[9]
  sensitivity of ERK signaling driven by RAF mutants that constitutively dimerize: sensitive

## COC(=O)N[C@@H](C)CNc1nccc(-c2cn(C(C)C)nc2-c2cc(Cl)cc(NS(C)(=O)=O)c2F)n1 [LGX818]
[10]
  pIC50: 6.54
[11]; [14]
  concentration of peak induction of ERK: 100 nM
  concentrations causing concentration-dependent inhibition of ERK signaling: 300 to 3000 nM
[11]; [15]
  half-time of p-ERK rise after drug washout: 10 min
  p-ERK 24 hr after washout relative to basal: three fold elevated compared to basal
[11]; SK-MEL-30, 3 μM for 1 hr then washout, maximum approximately 1 hr after washout
  maximum p-ERK after drug washout relative to basal: about five times higher than basal
[12]
  pIC50: 7.85
A375 (BRAF V600E) cells; A375, 3 μM for 1 hr then washout
  p-ERK after drug washout: remained inhibited in A375 for up to 24 hr
BRAF V600E tumor cells
  ERK phosphorylation 1 hr after washout of the drug: remains inhibited

## CS(=O)(=O)CCNCc1ccc(-c2ccc3ncnc(Nc4ccc(OCc5cccc(F)c5)c(Cl)c4)c3c2)o1 [lapatinib]
[1]; SKBR3, 1 hr exposure
  RAS activity and ERK signaling: potently suppressed

## CC(C)(C)c1nc(-c2cccc(NS(=O)(=O)c3c(F)cccc3F)c2F)c(-c2ccnc(N)n2)s1 [dabrafenib]
BRAF/CRAF heterodimers
  induction of BRAF/CRAF heterodimers: equivalent and much greater than that caused by vemurafenib
p61 BRAF V600E
  fold higher concentrations required to inhibit ERK driven by p61 V600E dimers than by p61 V600E R509H monomers: same relative difference

## CCCS(=O)(=O)Nc1ccc(F)c(C(=O)c2c[nH]c3ncc(-c4ccc(Cl)cc4)cc23)c1F [vemurafenib]
[13]
  effect on ERK signaling and proliferation of JVM-3: resistant
[11]; [14]
  effect on ERK signaling: activates ERK signaling
[3]
  ERK signaling resistant to the drug: resistant
[4]
  activity against SK-MEL-239 C4 tumors (growth): only the latter had activity
SK-MEL-239 tumors
  growth of SK-MEL-239 tumors: effectively inhibited
  ERK signaling in SK-MEL-239 tumors: potently inhibited
[9]
  sensitivity of ERK signaling driven by RAF mutants that constitutively dimerize: resistant
BRAF V600E tumor cells
  ERK phosphorylation 1 hr after washout of the drug: returned to pre-exposure levels
